# Laboratory results published in US9636336B2, “Aminoester derivatives” (CHIESI FARMACEUTICI S.p.A., priority 2015, dated 2017).
# Read-outs that look alike come from different tables or passages of the source.
# How the values were obtained:
# [1] = target: Human M3 receptor membranes (Homo sapiens (Human), UniProt P20309); experiment: M3 Receptor radioligand binding assay
# Experimental: M3 Receptor Radioligand Binding Assay:
# The assay is carried out in 96-well polypropylene plates in a volume of 250 μl. […] The final assay concentration of DMSO is 0.5% (v/v). The plates are sealed and incubated for 2 h at room temperature on an orbital shaker (slow speed). Membranes are harvested onto 96-well unifilter GF/C filter plates pre-treated with 0.5% polyethyleneimine (v/v), using a filter manifold, washed four times with 200 μl of assay buffer. The plates are dried before addition of 50 μl of microscint-0, sealed then read in a Trilux Microbeta scintillation counter. IC50 values are determined from competition curves using a non-linear curve fitting program. Ki values are calculated from IC50 values by the Cheng and Prusoff equation.
# Human recombinant PDE4B2 = Human recombinant PDE4B2 (Homo sapiens (Human), UniProt Q07343); experiment: PDE4B2 HTRF assay; type: biochemical
# Chain of Human recombinant PDE4B2 (Q07343 other isoform, or with tags, fused parts or gaps): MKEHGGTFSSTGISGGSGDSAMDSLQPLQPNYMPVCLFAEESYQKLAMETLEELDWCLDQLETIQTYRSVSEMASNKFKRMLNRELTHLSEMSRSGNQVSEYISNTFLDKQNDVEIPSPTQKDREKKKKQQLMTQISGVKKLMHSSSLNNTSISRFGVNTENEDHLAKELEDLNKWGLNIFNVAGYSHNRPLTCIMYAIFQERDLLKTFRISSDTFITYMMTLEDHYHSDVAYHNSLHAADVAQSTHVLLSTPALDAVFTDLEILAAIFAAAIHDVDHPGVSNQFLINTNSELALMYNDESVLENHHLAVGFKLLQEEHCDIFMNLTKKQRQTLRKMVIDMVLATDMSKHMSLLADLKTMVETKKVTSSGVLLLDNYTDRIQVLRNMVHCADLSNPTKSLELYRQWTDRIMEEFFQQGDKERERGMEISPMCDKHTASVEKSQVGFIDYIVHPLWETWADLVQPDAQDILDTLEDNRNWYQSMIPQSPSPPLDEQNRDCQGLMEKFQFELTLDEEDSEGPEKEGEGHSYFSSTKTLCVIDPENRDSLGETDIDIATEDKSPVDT
# Experimental: PDE4B2 activity is detected using the LANCE Ultra cAMP homogeneous time resolved fluorescence resonance energy transfer (TR-FRET) assay from Perkin Elmer. The assay is based on the competition between the europium (Eu) chelate-labeled cAMP tracer and sample cAMP for binding sites on cAMP-specific monoclonal antibodies (mAb) labelled with the ULight™ dye. The assay is carried out in 384-well low volume plates in a volume of 10 μl. Human recombinant PDE4B2 (80 pM) is incubated for 2 h with 3 nM cAMP in buffer containing 1×HBSS, 5 mM HEPES, 3 mM MgCl2, 0.1% BSA, pH 7.4 with or without test compounds. The enzymatic reactions are efficiently stopped by the addition of 500 μM IBMX present in the combined Stop/Detection buffer containing europium (Eu) chelate-labeled cAMP tracer and cAMP-specific monoclonal antibodies (mAb) labelled with the ULight™ dye. […] IC50 values are determined from competition curves using a non-linear curve fitting program.
# [2] = M3 Receptor radioligand binding assay, read-out: M3 IC50 activity
# [3] = PDE4B2 HTRF assay, read-out: PDE4B2 IC50 activity
# Chain of Human M3 receptor membranes (P20309 whole entry): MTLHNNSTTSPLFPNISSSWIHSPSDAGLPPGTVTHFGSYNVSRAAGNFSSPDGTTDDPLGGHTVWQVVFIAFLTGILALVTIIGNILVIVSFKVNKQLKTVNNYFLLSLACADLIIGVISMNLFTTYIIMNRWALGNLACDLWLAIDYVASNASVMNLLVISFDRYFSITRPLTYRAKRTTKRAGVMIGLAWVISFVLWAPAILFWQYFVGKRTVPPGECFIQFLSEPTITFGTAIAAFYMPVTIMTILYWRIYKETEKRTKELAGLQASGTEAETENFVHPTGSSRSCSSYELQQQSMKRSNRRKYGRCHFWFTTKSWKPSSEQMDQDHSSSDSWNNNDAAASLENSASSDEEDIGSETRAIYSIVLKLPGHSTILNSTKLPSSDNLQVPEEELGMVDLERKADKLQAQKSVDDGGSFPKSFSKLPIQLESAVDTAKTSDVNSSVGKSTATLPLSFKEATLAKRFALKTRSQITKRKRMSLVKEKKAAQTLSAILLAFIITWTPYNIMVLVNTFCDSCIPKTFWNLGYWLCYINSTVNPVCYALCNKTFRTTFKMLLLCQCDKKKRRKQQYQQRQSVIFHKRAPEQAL
"IC50 [1, 2]",IC50 (Human recombinant PDE4B2; [3]),Structure (SMILES),further results
10 to 100 nM,1 to 10 nM,"COc1ccc([C@H](Cc2c(Cl)c[n+]([O-])cc2Cl)OC(=O)c2ccc(CNC(C(=O)OC[C@@H]3CN(C)CCN3C)c3ccccc3)s2)cc1OC (stereo partly drawn) [Example 32, [(1S)-2-(3,5-dichloro-1-oxido-pyridin-1-ium-4-yl)-1-(3,4-dimethoxyphenyl)ethyl] 5-[[[2-[[(2S)-1,4-dimethylpiperazin-2-yl]methoxy]-2-oxo-1-phenyl-ethyl]amino]methyl]thiophene-2-carboxylate]",
10 to 100 nM,1 to 10 nM,"COc1ccc([C@H](Cc2c(Cl)c[n+]([O-])cc2Cl)OC(=O)c2ccc(CNC(C(=O)OCC3CCN(C(C)C)CC3)c3ccccc3)s2)cc1OC (single isomer, unassigned) [Example 42]",
1 to 10 nM,1 to 10 nM,"COCCOc1cc([C@H](Cc2c(Cl)c[n+]([O-])cc2Cl)OC(=O)c2ccc(CNC(C(=O)OCC3CCN(C)CC3)c3ccccc3)s2)ccc1OC(F)F (stereo partly drawn) [Example 113, [(1S)-2-(3,5-dichloro-1-oxido-pyridin-1-ium-4-yl)-1-[4-(difluoromethoxy)-3-(2-methoxyethoxy)phenyl]ethyl] 5-[[[2-[(1-methyl-4-piperidyl)methoxy]-2-oxo-1-phenyl-ethyl]amino]methyl]thiophene-2-carboxylate]",
1 to 10 nM,1 to 10 nM,"CN1CCC(COC(=O)C(NCc2ccc(C(=O)O[C@@H](Cc3c(Cl)c[n+]([O-])cc3Cl)c3ccc(OC(F)F)c(OCC4CC4)c3)s2)c2cccc(O)c2)CC1 (mixture of isomers) [Example 46, [(1S)-1-[3-(cyclopropylmethoxy)-4-(difluoromethoxy)phenyl]-2-(3,5-dichloro-1-oxido-pyridin-1-ium-4-yl)ethyl]5-[[[1-(3-hydroxyphenyl)-2-[(1-methyl-4-piperidyl)methoxy]-2-oxo-ethyl]amino]methyl]thiophene-2-carboxylate]",
10 to 100 nM,,"COc1ccc(C(Cc2c(Cl)c[n+]([O-])cc2Cl)OC(=O)c2ccc(CNC(C(=O)OCC3CCN(C)CC3)c3cccc(O)c3)s2)cc1OCC1CC1 (stereo not drawn) [Example 48, [1-[3-(cyclopropylmethoxy)-4-methoxy-phenyl]-2-(3,5-dichloro-1-oxido-pyridin-1-ium-4-yl)ethyl]5-[[[1-(3-hydroxyphenyl)-2-[(1-methyl-4-piperidyl)methoxy]-2-oxo-ethyl]amino]methyl]thiophene-2-carboxylate]",
1 to 10 nM,,"COc1ccc([C@H](Cc2c(Cl)c[n+]([O-])cc2Cl)OC(=O)c2ccc(CNC(C)(C(=O)OCC3CCN(C)CC3)c3ccccc3)s2)cc1OC (stereo partly drawn) [Example 34, [(1S)-2-(3,5-dichloro-1-oxido-pyridin-1-ium-4-yl)-1-(3,4-dimethoxyphenyl)ethyl] 5-[[[1-methyl-2-[(1-methyl-4-piperidyl)methoxy]-2-oxo-1-phenyl-ethyl]amino]methyl]thiophene-2-carboxylate]",
1 to 10 nM,,"COc1ccc([C@H](Cc2c(Cl)c[n+]([O-])cc2Cl)OC(=O)c2ccc(CNC(C(=O)OC[C@H]3CCCN(C)C3)c3ccccc3)s2)cc1OC (stereo partly drawn) [Example 26, [(1S)-2-(3,5-dichloro-1-oxido-pyridin-1-ium-4-yl)-1-(3,4-dimethoxyphenyl)ethyl] 5-[[[2-[[(3S)-1-methyl-3-piperidyl]methoxy]-2-oxo-1-phenyl-ethyl]amino]methyl]thiophene-2-carboxylate]",
10 to 100 nM,,"COc1ccc([C@H](Cc2c(Cl)c[n+]([O-])cc2Cl)OC(=O)c2ccc(CNC(C(=O)OC[C@H]3CCCCN3C)c3ccccc3)s2)cc1OC (stereo partly drawn) [Example 30, [(1S)-2-(3,5-dichloro-1-oxido-pyridin-1-ium-4-yl)-1-(3,4-dimethoxyphenyl)ethyl] 5-[[[2-[[(2R)-1-methyl-2-piperidyl]methoxy]-2-oxo-1-phenyl-ethyl]amino]methyl]thiophene-2-carboxylate]",
1 to 10 nM,,"COc1ccc([C@H](Cc2c(Cl)c[n+]([O-])cc2Cl)OC(=O)c2ccc(CNC(C(=O)OCC3CCN(C)CC3)c3cccc(O)c3)s2)cc1OC (stereo partly drawn) [Example 41, [(1S)-2-(3,5-dichloro-1-oxido-pyridin-1-ium-4-yl)-1-(3,4-dimethoxyphenyl)ethyl]5-[[[1-(3-hydroxyphenyl)-2-[(1-methyl-4-piperidyl)methoxy]-2-oxo-ethyl]amino]methyl]thiophene-2-carboxylate]",

# The remaining lines, values behind:
Structure (SMILES),"IC50 [1, 2]",IC50 (Human recombinant PDE4B2; [3]),further results
"COc1ccc([C@H](Cc2c(Cl)c[n+]([O-])cc2Cl)OC(=O)c2ccc(CNC(CO)(C(=O)OC[C@@H]3CCN(C)C3)c3ccccc3)s2)cc1OC (stereo partly drawn) [Example 116, [(1S)-2-(3,5-dichloro-1-oxido-pyridin-1-ium-4-yl)-1-(3,4-dimethoxyphenyl)ethyl] 5-[[[1-(hydroxymethyl)-2-[[(3R)-1-methylpyrrolidin-3-yl]methoxy]-2-oxo-1-phenyl-ethyl]amino]methyl]thiophene-2-carboxylate]",,1 to 10 nM,
"COc1ccc([C@H](Cc2c(Cl)c[n+]([O-])cc2Cl)OC(=O)c2ccc(CNC(C(=O)OCC3C[C@H]4CC[C@@H](C3)N4C)c3ccccc3)s2)cc1OC (stereo partly drawn) [Example 114, [(1S)-2-(3,5-dichloro-1-oxido-pyridin-1-ium-4-yl)-1-(3,4-dimethoxyphenyl)ethyl] 5-[[[2-[[(1R,5S)-8-methyl-8-azabicyclo[3.2.1]octan-3-yl]methoxy]-2-oxo-1-phenyl-ethyl]amino]methyl]thiophene-2-carboxylate]",,,IC50 [1]: 10 to 100 nM; IC50 (Human recombinant PDE4B2): 1 to 10 nM
"COc1ccc([C@H](Cc2c(Cl)c[n+]([O-])cc2Cl)OC(=O)c2ccc(CNC(C(=O)OCC3CCN(C)CC3)C3CCCCC3)s2)cc1OC (stereo partly drawn) [Example 9, [(1S)-2-(3,5-dichloro-1-oxido-pyridin-1-ium-4-yl)-1-(3,4-dimethoxyphenyl)ethyl]5-[[[1-cyclohexyl-2-[(1-methyl-4-piperidyl)methoxy]-2-oxo-ethyl]amino]methyl]thiophene-2-carboxylate]",10 to 100 nM,,IC50 (Human recombinant PDE4B2; read-out: PDE4B2 IC50 activity): 1 to 10 nM
"COc1ccc([C@H](Cc2c(Cl)c[n+]([O-])cc2Cl)OC(=O)c2ccc(CNC(C(=O)OCC3(C)CCN(C)CC3)c3ccccc3)s2)cc1OC (mixture of isomers) [Example 2, [(1S)-2-(3,5-dichloro-1-oxido-pyridin-1-ium-4-yl)-1-(3,4-dimethoxyphenyl)ethyl]5-[[[2-[(1,4-dimethyl-4-piperidyl)methoxy]-2-oxo-1-phenyl-ethyl]amino]methyl]thiophene-2-carboxylate]",10 to 100 nM,1 to 10 nM,
"COc1ccc([C@H](Cc2c(Cl)c[n+]([O-])cc2Cl)OC(=O)c2ccc(CNC(C(=O)OCC3(F)CCN(C)CC3)c3ccccc3)s2)cc1OC (stereo partly drawn) [Example 3, [(1S)-2-(3,5-dichloro-1-oxido-pyridin-1-ium-4-yl)-1-(3,4-dimethoxyphenyl)ethyl] 5-[[[2-[(4-fluoro-1-methyl-4-piperidyl)methoxy]-2-oxo-1-phenyl-ethyl]amino]methyl]thiophene-2-carboxylate]",,1 to 10 nM,
"COc1ccc([C@H](Cc2c(Cl)c[n+]([O-])cc2Cl)OC(=O)c2ccc(CNC(C(=O)OCCN3CCCC3)c3ccccc3)s2)cc1OC (stereo partly drawn) [Example 21, [(1S)-2-(3,5-dichloro-1-oxido-pyridin-1-ium-4-yl)-1-(3,4-dimethoxyphenyl)ethyl] 5-[[[2-oxo-1-phenyl-2-(2-pyrrolidin-1-ylethoxy)ethyl]amino]methyl]thiophene-2-carboxylate]",,1 to 10 nM,
CCN1CCC(COC(=O)C(NCc2ccc(C(=O)O[C@@H](Cc3c(Cl)c[n+]([O-])cc3Cl)c3ccc(OC)c(OC)c3)s2)c2ccccc2)CC1 (stereo partly drawn) [Example 19],,< 1 nM,
CCOc1cc(C(Cc2c(Cl)c[n+]([O-])cc2Cl)OC(=O)c2ccc(CNC(C(=O)OCC3CCN(C)CC3)c3cccc(O)c3)s2)ccc1OC (stereo not drawn) [Example 120],,< 1 nM,
"COc1ccc([C@H](Cc2c(Cl)c[n+]([O-])cc2Cl)OC(=O)c2ccc(CNC(C(=O)OC[C@@H]3CCCN(C)C3)c3ccccc3)s2)cc1OC (stereo partly drawn) [Example 50, [(1S)-2-(3,5-dichloro-1-oxido-pyridin-1-ium-4-yl)-1-(3,4-dimethoxyphenyl)ethyl]5-[[[2-[[(3R)-1-methyl-3-piperidyl]methoxy]-2-oxo-1-phenyl-ethyl]amino]methyl]thiophene-2-carboxylate]",1 to 10 nM,,
"COc1ccc(C(Cc2c(Cl)c[n+]([O-])cc2Cl)OC(=O)c2ccc(CNC(C(=O)OCC3CCN(C)CC3)c3ccccc3)s2)cc1OC1CCCC1 (stereo not drawn) [Example 6, [1-[3-(cyclopentoxy)-4-methoxy-phenyl]-2-(3,5-dichloro-1-oxido-pyridin-1-ium-4-yl)ethyl] 5-[[[2-[(1-methyl-4-piperidyl)methoxy]-2-oxo-1-phenyl-ethyl]amino]methyl]thiophene-2-carboxylate]",1 to 10 nM,,
COc1ccc([C@H](Cc2c(Cl)c[n+]([O-])cc2Cl)OC(=O)c2ccc(CNC(C(=O)OCC3CCN(C)CC3)c3ccccc3OC)s2)cc1OC (stereo partly drawn) [Example 118],,< 1 nM,
